Measured values: ChEMBL document CHEMBL5352447, “Development of [1,2]oxazoloisoindoles tubulin polymerization inhibitors: Further chemical modifications and potential therapeutic effects against lymphomas” (Eur J Med Chem, 2022)

Tests used:
SF-268 = test: Antiproliferative activity against human SF-268 cells assessed as cell growth inhibition incubated for 72 hrs by MTT assay; type: functional
RXF 393 = test: Antiproliferative activity against human RXF 393 cells assessed as cell growth inhibition incubated for 72 hrs by MTT assay; type: functional
SF-295 = test: Antiproliferative activity against human SF-295 cells assessed as cell growth inhibition incubated for 72 hrs by MTT assay; type: functional
UACC-62 = test: Antiproliferative activity against human UACC-62 cells assessed as cell growth inhibition incubated for 72 hrs by MTT assay; type: functional
OVCAR-8 = test: Antiproliferative activity against human OVCAR-8 cells assessed as cell growth inhibition incubated for 72 hrs by MTT assay; type: functional
[1] = Antiproliferative activity against human MINO cells assessed as inhibition of cell proliferation incubated for 72 hrs by MTT assay; type: functional, cell-based
VL51 [2] = test: Antiproliferative activity against human VL51 cells assessed as inhibition of cell proliferation incubated for 72 hrs by MTT assay; type: functional, cell-based; details: VL51, 72 h
CCRF-CEM = test: Antiproliferative activity against human CCRF-CEM cells assessed as cell growth inhibition incubated for 72 hrs by MTT assay; type: functional
HT-29 = test: Antiproliferative activity against human HT-29 cells assessed as cell growth inhibition incubated for 72 hrs by MTT assay; type: functional
SR = test: Antiproliferative activity against human SR cells assessed as cell growth inhibition incubated for 72 hrs by MTT assay; type: functional
Malme-3M = test: Antiproliferative activity against human Malme-3M cells assessed as cell growth inhibition incubated for 72 hrs by MTT assay; type: functional
BT-549 = test: Antiproliferative activity against human BT-549 cells assessed as cell growth inhibition incubated for 72 hrs by MTT assay; type: functional
[3] = Antiproliferative activity against human MINO cells assessed as proliferating cells at 1 uM incubated for 72 hrs by MTT assay relative to control; type: functional
DU-145 = test: Antiproliferative activity against human DU-145 cells assessed as cell growth inhibition incubated for 72 hrs by MTT assay; type: functional
SW-620 = test: Antiproliferative activity against human SW620 cells assessed as cell growth inhibition incubated for 72 hrs by MTT assay; type: functional
SK-MEL-5 = test: Antiproliferative activity against human SK-MEL-5 cells assessed as cell growth inhibition incubated for 72 hrs by MTT assay; type: functional
SNB-75 = test: Antiproliferative activity against human SNB-75 cells assessed as cell growth inhibition incubated for 72 hrs by MTT assay; type: functional
MCF7 = test: Antiproliferative activity against human MCF7 cells assessed as cell growth inhibition incubated for 72 hrs by MTT assay; type: functional
NCI-H522 = test: Antiproliferative activity against human NCI-H522 cells assessed as cell growth inhibition incubated for 72 hrs by MTT assay; type: functional
SN12C = test: Antiproliferative activity against human SN12C cells assessed as cell growth inhibition incubated for 72 hrs by MTT assay; type: functional
NCI/ADR-RES = test: Antiproliferative activity against human NCI-ADR-RES cells assessed as cell growth inhibition incubated for 72 hrs by MTT assay; type: functional
NCI-H460 = test: Antiproliferative activity against human NCI-H460 cells assessed as cell growth inhibition incubated for 72 hrs by MTT assay; type: functional
MDA-MB-435 = test: Antiproliferative activity against human MDA-MB-435 cells assessed as cell growth inhibition incubated for 72 hrs by MTT assay; type: functional
MDA-MB-468 = test: Antiproliferative activity against human MDA-MB-468 cells assessed as cell growth inhibition incubated for 72 hrs by MTT assay; type: functional
M14 = test: Antiproliferative activity against human M14 cells assessed as cell growth inhibition incubated for 72 hrs by MTT assay; type: functional
U-251 = test: Antiproliferative activity against human U-251 cells assessed as cell growth inhibition incubated for 72 hrs by MTT assay; type: functional
OVCAR-5 = test: Antiproliferative activity against human OVCAR-5 cells assessed as cell growth inhibition incubated for 72 hrs by MTT assay; type: functional
SU-DHL10 [4] = test: Antiproliferative activity against human SU-DHL-10 cells assessed as proliferating cells at 1 uM incubated for 72 hrs by MTT assay relative to control; type: functional
SNB-19 = test: Antiproliferative activity against human SNB-19 cells assessed as cell growth inhibition incubated for 72 hrs by MTT assay; type: functional
OVCAR-4 = test: Antiproliferative activity against human OVCAR-4 cells assessed as cell growth inhibition incubated for 72 hrs by MTT assay; type: functional
VL51 [5] = test: Antiproliferative activity against human VL51 cells assessed as proliferating cells at 1 uM incubated for 72 hrs by MTT assay relative to control; type: functional
HCT-15 = test: Antiproliferative activity against human HCT-15 cells assessed as cell growth inhibition incubated for 72 hrs by MTT assay; type: functional
A549 = test: Antiproliferative activity against human A549 cells assessed as cell growth inhibition incubated for 72 hrs by MTT assay; type: functional
HOP-62 = test: Antiproliferative activity against human HOP-62 cells assessed as cell growth inhibition incubated for 72 hrs by MTT assay; type: functional
NCI-H23 = test: Antiproliferative activity against human NCI-H23 cells assessed as cell growth inhibition incubated for 72 hrs by MTT assay; type: functional
NCI-H226 = test: Antiproliferative activity against human NCI-H226 cells assessed as cell growth inhibition incubated for 72 hrs by MTT assay; type: functional
TK-10 = test: Antiproliferative activity against human TK-10 cells assessed as cell growth inhibition incubated for 72 hrs by MTT assay; type: functional
HCC 2998 = test: Antiproliferative activity against human HCC 2998 cells assessed as cell growth inhibition incubated for 72 hrs by MTT assay; type: functional
UACC-257 = test: Antiproliferative activity against human UACC-257 cells assessed as cell growth inhibition incubated for 72 hrs by MTT assay; type: functional
KM12 = test: Antiproliferative activity against human KM12 cells assessed as cell growth inhibition incubated for 72 hrs by MTT assay; type: functional
IGROV-1 = test: Antiproliferative activity against human IGROV-1 cells assessed as cell growth inhibition incubated for 72 hrs by MTT assay; type: functional
COLO 205 = test: Antiproliferative activity against human COLO 205 cells assessed as cell growth inhibition incubated for 72 hrs by MTT assay; type: functional
MDA-MB-231 = test: Antiproliferative activity against human MDA-MB-231 cells assessed as cell growth inhibition incubated for 72 hrs by MTT assay; type: functional
SU-DHL10 [6] = test: Antiproliferative activity against human SU-DHL-10 cells assessed as inhibition of cell proliferation incubated for 72 hrs by MTT assay; type: functional, cell-based; details: SU-DHL10, 72 h
A498 = test: Antiproliferative activity against human A498 cells assessed as cell growth inhibition incubated for 72 hrs by MTT assay; type: functional
Hs-578T = test: Antiproliferative activity against human Hs-578T cells assessed as cell growth inhibition incubated for 72 hrs by MTT assay; type: functional

In the case of `COc1ccc(Cn2cc3c(c2-c2cc(OC)c(OC)c(OC)c2)CCc2c(CN4CCCC4)noc2-3)cc1`, the GI50 (SF-268) is reported as 3150 nM, the GI50 (RXF 393) is reported as 890 nM and the GI50 (SF-295) is reported as 460 nM. For the same compound, the GI50 (UACC-62) was 550 nM, the GI50 (OVCAR-8) was 3270 nM and the IC50 [1] was 500 nM. For the same compound, the IC50 (VL51 [2]) was 150 nM, the GI50 (CCRF-CEM) was 730 nM and the GI50 (HT-29) was 400 nM. The GI50 (SR) was 360 nM, the GI50 (Malme-3M) was 500 nM and the GI50 (BT-549) was 2470 nM. It also gave an Activity [3] of 8.7%, a GI50 (DU-145) of 4000 nM and a GI50 (SW-620) of 540 nM. For the same compound, the GI50 (SK-MEL-5) was 1020 nM, the GI50 (SNB-75) was 670 nM and the GI50 (MCF7) was 330 nM. It also gave a GI50 (NCI-H522) of 470 nM, a GI50 (SN12C) of 4430 nM and a GI50 (NCI/ADR-RES) of 550 nM. For the same compound, the GI50 (NCI-H460) was 570 nM, the GI50 (MDA-MB-435) was 240 nM and the GI50 (MDA-MB-468) was 280 nM. The GI50 (M14) was 580 nM, the GI50 (U-251) was 540 nM and the GI50 (OVCAR-5) was 3200 nM. For the same compound, the Activity (SU-DHL10 [4]) was 0.3%, the GI50 (SNB-19) was 780 nM and the GI50 (OVCAR-4) was 21400 nM. It also gave an Activity (VL51 [5]) of 57%, a GI50 (HCT-15) of 480 nM and a GI50 (A549) of 1330 nM. For the same compound, the GI50 (HOP-62) was 1000 nM, the GI50 (NCI-H23) was 2800 nM and the GI50 (NCI-H226) was 2070 nM. It also gave a GI50 (TK-10) of 23400 nM, a GI50 (HCC 2998) of 1840 nM and a GI50 (UACC-257) of 17000 nM. For the same compound, the GI50 (KM12) was 12600 nM, the GI50 (IGROV-1) was 890 nM and the GI50 (COLO 205) was 940 nM. It also gave a GI50 (MDA-MB-231) of 3050 nM, an IC50 (SU-DHL10 [6]) of 700 nM and a GI50 (A498) of 780 nM. It also gave a GI50 (Hs-578T) of 1800 nM.
